How the values were obtained:
[1] = Plasma protein binding assay, dog plasma; format: in vitro ADME; conditions: data not shown
[2] = parameters: method as in Lorusso et al., 2005; conditions: acid metabolite after CI-1040 dosing in patients; ref Lorusso et al., 2005; cited from earlier work
[3] = QWBA tissue radioactivity, single oral 30 mg/kg, male partially pigmented rats (Group 3); 0.5, 2, 4, 8, 24, 72, 168 h; format: in vivo, rat
Experimental: The whole-body autoradiography techniques by Ullberg and Larsson was used in this study ([Ullberg and Larsson 1981]). Following a single oral administration of [^14C]-zapnometinib to seven male and seven female partially pigmented rats (Group 3) and four male albino rats (Group 4), one animal per sex (where appropriate) was killed at the following time points post dose: Group 3 (pigmented): 0.5, 2, 4, 8, 24, 72, and 168 h, Group 4 (albino): 2, 24, 72 and 168 h. At sacrifice, each rat was anaesthetized with isoflurane and a blood sample (ca 5 ml) was collected by cardiac puncture into a tube containing K2EDTA anticoagulant. Blood was centrifuged at 2000 ×g for 10 min at 4°C to obtain plasma, which was transferred into plain tubes pending measurement of radioactivity concentration. The blood cells were also retained for analysis.
The rat carcasses were immediately attached to a plate and frozen in a bath of n-heptane and solid CO2 at ca –80°C and then stored at –20 ± 10°C until taken for sectioning. […] [^14C]-Blood standards containing six different known concentrations of radioactivity were used to construct the calibration line for the quantitative determination of tissue concentrations of radioactivity. […] The electronic images of all sections were analyzed at Labcorp–Huntingdon using a validated image analysis package (Seescan Densitometry software, version 2.0). […]

[4] = Plasma total radioactivity pharmacokinetics after single oral 30 mg/kg [14C]-zapnometinib, Sprague-Dawley rats (Group 1); format: in vivo, rat
Experimental: Oral doses of [^14C]-zapnometinib were administered as a suspension in 5% DMSO (v/v), 30% PEG 400 (v/v) and 7.5% (w/v) Captisol in water at a dose level of 30 mg/kg to male and female rats by gastric intubation at a dose volume of 4 ml/kg body weight. The selected dose level (30 mg/kg) was below the no observed adverse effect level (100 mg/kg), the formulation was selected based on data obtained in other nonclinical studies. The radioactive dose administered to each animal was quantified from the weight (excretion studies only) or volume of dosing formulation given, and its mean measured radioactivity concentration. The weight of test compound administered to each rat was determined from the radioactive dose administered and the specific activity of the test material.
After single oral doses of [^14C]-zapnometinib to three male and three female rats, a blood sample (ca 220 µL) was taken from each animal, via the jugular or tail vein at each of the following time points: 0.25, 0.5, 1, 2, 4, 8, 24, 48, 72, 96, 120 and 168 h after dose administration. All blood samples were delivered into K2EDTA tubes and centrifuged (ca 2000 ×g at 4°C for 10 min) to obtain plasma; blood cells were discarded. After collection of the terminal sample, rats were killed by cervical dislocation and the carcasses discarded.
Radioactivity was measured by liquid scintillation analysis using Wallac® 1409 automatic liquid scintillation counters. Samples were prepared according to the company’s SOP (see Supplementary Methods). Briefly, replicate weighed samples were mixed with Ultima Gold™ scintillation cocktail (PerkinElmer, United States) for the measurement of radioactivity. Radioactivity in amounts less than twice that of the background concentration in the sample under investigation was below the limit of accurate quantification (BLQ).
Weight, volume, and radioactivity concentration (liquid scintillation analysis) results relating to the analysis of biological samples generated during this study were acquired and processed using DEBRA, a Laboratory Information Management System (v 5.5.4). Pharmacokinetic parameters were calculated using the computer program Phoenix™ WinNonlin version 8.3 (Pharsight Corporation, United States). Areas under the mean plasma radioactivity concentration-time curves up to the time of the last quantifiable sample (AUC0-t) were estimated by the linear trapezoidal rule. Areas under the mean plasma radioactivity concentration-time curves to infinite time (AUC0-inf) were calculated using the expression: AUC0-inf = AUC0-t + Ct/λz, where Ct is the last measurable concentration and λz is the elimination rate constant estimated using log-linear regression during the terminal elimination phase. Statistical evaluation was limited to basic expressions of variation such as means and standard deviation.

O=C(O)c1ccc(F)c(F)c1Nc1ccc(I)cc1Cl [zapnometinib, 2-(2-Chloro-4-iodophenylamino)-3,4-difluorobenzoic acid]
Protein binding [1]: high protein binding
Unbound fraction [1]: very low
Plasma concentrations relative to those of CI-1040 [2]: approximately 30 fold
Radioactivity in all remaining tissues ([3]; 2 h, male): ≤ 70.0 μg equivs/g
Penetration into the brain ([3]; whole body autoradiography): low
Mean plasma radioactivity concentration ([4]; 48 h post dose, females): 0.650 μg equivs/ml
Mean plasma radioactivity concentration ([4]; 48 h post dose, males): 0.724 μg equivs/ml
Mean plasma radioactivity concentration ([4]; 168 h post dose, females): 0.049 μg equivs/ml
Mean plasma radioactivity concentration ([4]; 168 h post dose, males): 0.054 μg equivs/ml
Plasma radioactivity at 168 h as % of Cmax ([4]; females): ~0.04%
Plasma radioactivity at 168 h as % of Cmax ([4]; males): ~0.06%
AUC0-t females versus males ([4]; total plasma radioactivity): 1.4 fold
Cmax females versus males ([4]; total plasma radioactivity): 1.5 fold

— paper PMC9760738, “Pharmacokinetics, absorption, distribution, metabolism and excretion of the MEK inhibitor zapnometinib in rats” (Frontiers in Pharmacology, 2022)
